In ChEMBL document CHEMBL1159214, “The antiallergic activities of synthetic acrophylline and acrophyllidine” (J Nat Prod, 1995):
Calls of active or inactive are those of the source. The calls are words filed in the database; no cut-off is given here.

Columns and labels:
Mast cell [1] = test: Inhibition of compound 48/80-challenged Sprague-Dawley rat peritoneal mast cell degranulation assessed as beta-glucuronidase release at 30 uM administered 3 mins prior to compound 48/80 challenge measured after 15 mins; assay type: functional, cell-based
Mast cell [2] = test: Inhibition of compound 48/80-challenged Sprague-Dawley rat peritoneal mast cell degranulation assessed as beta-glucuronidase release at 10 uM administered 3 mins prior to compound 48/80 challenge measured after 15 mins; assay type: functional, cell-based
Mus musculus = test: Suppression of anti-dinitrophenyl-coupled albumin-induced passive cutaneous anaphylaxis reaction-associated ear edema in mouse assessed as reduction of volume of plasma exudation at 30 umol/kg, ip administered 30 mins prior to DNP-albumin challenge measured after 45 mins; assay type: functional, organism-based
Mast cell [3] = test: Inhibition of compound 48/80-challenged Sprague-Dawley rat peritoneal mast cell degranulation assessed as beta-glucuronidase release up to 100 uM administered 3 mins prior to compound 48/80 challenge measured after 15 mins; assay type: functional, cell-based

| Compound | Activity (Mast cell [1]) | Activity (Mast cell [2]) | Activity (Mus musculus) | Activity (Mast cell [3]) |
| --- | --- | --- | --- | --- |
| COc1ccc2c(=O)c3ccoc3n(CC=C(C)C)c2c1 | Active | Active | Active | – |
| COc1ccc2c(=O)c3ccoc3n(CCC(C)(C)O)c2c1 | – | – | Active | inactive |
